Test results as given in US8410310B2, “Trypsin-like serine protease inhibitors, and their preparation and use” (The Medicines Company (Leipzig) GmbH, priority 2006, dated 2013).
Where two headings read alike, the source gives them in different places.

Experiments:
Type in all cases: biochemical
plasmin = plasmin (Homo sapiens, UniProt P00747); test: Determination of inhibition constants for plasmin; set-up: purchased Calbiochem
Description: (§1) The inhibitory effect for the individual enzymes was determined in analogy to a previously disclosed method (Stürzebecher et al., 1997).
(§2) For zero order kinetics, the reaction was stopped after 20 min by adding 25 μl of acetic acid (50% v/v), and the absorption at 405 nm was determined using a Microplate Reader (Multiscan Ascent, from Thermo). In the case of pseudo-first order kinetics, the reaction rates in the equilibrium state were ascertained by recording the reaction kinetics. The Ki values were ascertained either in accordance with Dixon (1953) by linear regression using a computer program or by parameter fitting in accordance with the rate equation for competitive inhibition. The Ki values are the average of at least two determinations.

Thrombin = Thrombin (Homo sapiens, UniProt P00734); test: Determination of inhibition constants for thrombin
Description: as §1, §2

Xa = Xa (Homo sapiens, UniProt P00742); test: Determination of inhibition constants for Xa
Xa, sequence (P00742 235-488 limits assumed): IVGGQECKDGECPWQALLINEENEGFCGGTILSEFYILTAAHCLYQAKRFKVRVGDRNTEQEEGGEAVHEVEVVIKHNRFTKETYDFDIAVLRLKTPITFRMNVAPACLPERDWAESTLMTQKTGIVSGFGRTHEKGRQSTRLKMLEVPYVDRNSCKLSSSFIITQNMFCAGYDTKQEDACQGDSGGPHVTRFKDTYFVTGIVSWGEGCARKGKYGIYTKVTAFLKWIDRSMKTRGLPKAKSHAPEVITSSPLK
Xa, sequence (P00742 41-179 limits assumed): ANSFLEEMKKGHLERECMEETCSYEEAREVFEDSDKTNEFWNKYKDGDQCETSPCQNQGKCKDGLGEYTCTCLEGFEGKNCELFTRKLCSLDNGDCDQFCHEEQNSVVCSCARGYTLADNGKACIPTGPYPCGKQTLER
Description: as §1, §2

plasma kallikrein = plasma kallikrein (Homo sapiens, UniProt P03952); test: Determination of inhibition constants for PK; set-up: purchased Enzyme Research Lab. / Enzyme Research Laboratories
plasma kallikrein, sequence (P03952 391-638 limits assumed): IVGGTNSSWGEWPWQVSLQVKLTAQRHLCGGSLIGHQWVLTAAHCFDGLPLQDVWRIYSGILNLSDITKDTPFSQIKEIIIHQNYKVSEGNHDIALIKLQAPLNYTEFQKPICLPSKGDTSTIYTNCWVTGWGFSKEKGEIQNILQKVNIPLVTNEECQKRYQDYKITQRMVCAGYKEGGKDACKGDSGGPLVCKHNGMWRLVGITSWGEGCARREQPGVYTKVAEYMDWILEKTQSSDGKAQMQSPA
plasma kallikrein, sequence (P03952 20-390 partner limits assumed): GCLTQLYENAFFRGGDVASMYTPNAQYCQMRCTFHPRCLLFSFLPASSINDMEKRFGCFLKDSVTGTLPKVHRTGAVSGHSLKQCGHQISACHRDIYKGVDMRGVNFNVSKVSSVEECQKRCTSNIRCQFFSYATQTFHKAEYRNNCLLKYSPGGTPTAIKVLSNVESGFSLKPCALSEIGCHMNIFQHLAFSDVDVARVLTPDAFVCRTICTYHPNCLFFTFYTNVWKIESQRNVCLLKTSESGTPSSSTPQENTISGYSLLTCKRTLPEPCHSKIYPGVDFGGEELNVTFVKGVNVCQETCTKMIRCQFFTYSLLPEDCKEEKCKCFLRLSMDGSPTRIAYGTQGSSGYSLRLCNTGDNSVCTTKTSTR
Description: as §1, §2

[1] = 25° C., substrate Chromozym PL, pH 8.0, read-out: Plasmin [Ki]
[2] = 25° C., substrate S2302, pH 8.0, read-out: PK [Ki]
[3] = summary of results, read-out: Ki value of the plasma kallikrein inhibition

plasmin, sequence (P00747 581-810 limits assumed): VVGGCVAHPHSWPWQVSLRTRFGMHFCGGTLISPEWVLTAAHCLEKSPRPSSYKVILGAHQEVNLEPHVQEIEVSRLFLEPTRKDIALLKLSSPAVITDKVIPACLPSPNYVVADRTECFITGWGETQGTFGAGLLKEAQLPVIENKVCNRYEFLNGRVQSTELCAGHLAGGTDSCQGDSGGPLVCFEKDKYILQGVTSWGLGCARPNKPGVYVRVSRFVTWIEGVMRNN
plasmin, sequence (P00747 97-580 partner limits assumed): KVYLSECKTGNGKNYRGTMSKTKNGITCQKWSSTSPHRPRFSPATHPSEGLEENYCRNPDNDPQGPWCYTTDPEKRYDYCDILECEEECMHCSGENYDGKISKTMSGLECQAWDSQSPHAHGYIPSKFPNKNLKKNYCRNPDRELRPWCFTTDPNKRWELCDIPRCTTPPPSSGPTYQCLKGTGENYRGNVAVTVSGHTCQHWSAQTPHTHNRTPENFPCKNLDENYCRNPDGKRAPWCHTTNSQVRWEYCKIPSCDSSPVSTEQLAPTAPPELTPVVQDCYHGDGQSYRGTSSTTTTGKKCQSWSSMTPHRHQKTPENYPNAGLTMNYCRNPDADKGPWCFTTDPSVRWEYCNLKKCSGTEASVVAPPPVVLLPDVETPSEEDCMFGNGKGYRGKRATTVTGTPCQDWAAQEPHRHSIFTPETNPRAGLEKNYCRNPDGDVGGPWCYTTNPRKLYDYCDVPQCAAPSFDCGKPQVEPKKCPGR

Molecule | Ki (plasmin; [1]) [nM] | Ki (Thrombin) [nM] | Ki (Xa) [nM] | Ki (plasma kallikrein; [2]) [nM] | Ki (plasma kallikrein; [3]) [nM] | Ki (plasmin; summary of results, read-out: Ki value of the plasmin inhibition) [nM]
N=C(N)c1ccc(CNC(=O)[C@H](CCc2ccncc2)NC(=O)[C@@H](CCCc2ccccc2)NS(=O)(=O)Cc2cccc(C(=O)O)c2)cc1 [compound 40] | < 10 | < 100 | < 1000 | < 10 | < 1 | –
N=C(N)c1ccc(CNC(=O)[C@H](CCc2ccncc2)NC(=O)[C@@H](CC2CCCCC2)NS(=O)(=O)Cc2ccccc2)cc1 [compound 43] | < 10 | < 10 | < 100 | < 100 | – | –
N=C(N)c1ccc(CNC(=O)[C@H](CCc2ccncc2)NC(=O)[C@@H](CCc2ccccc2)NS(=O)(=O)Cc2ccccc2)cc1 [compound 44] | < 100 | < 100 | < 100 | < 100 | – | –
N#Cc1cccc(C[C@@H](NS(=O)(=O)Cc2ccccc2)C(=O)N[C@@H](CCc2ccncc2)C(=O)NCc2ccc(C(=N)N)cc2)c1 [compound 45] | < 10 | < 100 | < 1000 | < 10 | – | –
N=C(N)c1ccc(CNC(=O)[C@H](CCc2ccncc2)NC(=O)[C@@H](CCc2ccc(O)cc2)NS(=O)(=O)Cc2ccccc2)cc1 [compound 47] | < 10 | < 10 | < 10 | < 10 | – | –
N=C(N)c1ccc(CNC(=O)[C@H](CCc2ccccc2)NC(=O)[C@@H](CCCc2ccncc2)NS(=O)(=O)Cc2ccccc2)cc1 [compound 49] | < 10 | < 100 | < 100 | < 10 | – | –
N=C(N)c1ccc(CNC(=O)[C@H](CCc2ccccc2)NC(=O)[C@@H](CCCc2ccncc2)NS(=O)(=O)Cc2cccc(C(=O)O)c2)cc1 [compound 50] | < 10 | < 1000 | < 100 | < 10 | – | –
N=C(N)c1ccc(CNC(=O)[C@H](CCc2ccccc2)NC(=O)[C@@H](CCCc2cccnc2)NS(=O)(=O)Cc2cccc(C(=O)O)c2)cc1 [compound 52] | < 10 | < 100 | < 10 | < 10 | – | –
N=C(N)c1ccc(CNC(=O)[C@H](CCc2ccccc2)NC(=O)[C@@H](CCCc2ccc[n+]([O-])c2)NS(=O)(=O)Cc2cccc(C(=O)O)c2)cc1 [compound 56] | < 10 | < 1000 | < 10 | < 10 | – | –
N=C(N)c1ccc(CNC(=O)[C@H](Cc2cccc(CN)c2)NC(=O)[C@@H](CCCCN)NS(=O)(=O)Cc2ccccc2)cc1 [compound 59] | < 100 | > 1000 | < 1000 | < 10 | – | –
N=C(N)c1ccc(CNC(=O)[C@H](Cc2cccc(CN)c2)NC(=O)[C@@H](CN)NS(=O)(=O)Cc2ccccc2)cc1 [compound 61] | < 100 | > 1000 | > 1000 | < 10 | – | –
CC(C)(C)OC(=O)NCCCC[C@@H](NS(=O)(=O)Cc1ccccc1)C(=O)N[C@@H](CCc1ccncc1)C(=O)NCc1ccc(C(=N)N)cc1 [compound 62] | < 10 | < 1000 | < 1000 | < 10 | – | –
COC(=O)c1cccc(CS(=O)(=O)N[C@H](COC(C)(C)C)C(=O)N[C@@H](Cc2cccc(CN)c2)C(=O)NCc2ccc(C(=N)N)cc2)c1 [compound 66] | < 10 | > 1000 | < 100 | < 10 | – | –
COC(=O)c1ccc(CS(=O)(=O)N[C@H](CO)C(=O)N[C@@H](Cc2cccc(CN)c2)C(=O)NCc2ccc(C(=N)N)cc2)cc1 [compound 69] | < 100 | > 1000 | > 1000 | < 10 | – | –
N=C(N)c1ccc(CNC(=O)[C@H](CCc2cccc(CN)c2)NC(=O)[C@@H](CO)NS(=O)(=O)Cc2ccccc2)cc1 [compound 74] | < 100 | > 1000 | > 1000 | < 100 | – | –
N=C(N)c1ccc(CNC(=O)[C@H](Cc2ccc(C(=N)N)cc2)NC(=O)[C@@H](CO)NS(=O)(=O)Cc2ccccc2)cc1 [compound 76] | < 100 | > 1000 | > 1000 | < 100 | – | –
CC(C)(C)OC[C@@H](NS(=O)(=O)Cc1ccccc1)C(=O)N[C@@H](CCc1ccc(C(=N)N)cc1)C(=O)NCc1ccc(C(=N)N)cc1 [compound 77] | < 10 | < 100 | < 1000 | < 10 | – | –
N=C(N)c1ccc(CC[C@H](NC(=O)[C@@H](CO)NS(=O)(=O)Cc2ccccc2)C(=O)NCc2ccc(C(=N)N)cc2)cc1 [compound 78] | < 100 | > 1000 | > 1000 | < 10 | – | –
Bzls-d-Gly(3-O-Phpr)-Phe(3-Ame)-4-Amba×2 TFA [compound 6] | < 10 | < 1000 | < 100 | < 10 | – | –

Continued, values first:

Ki (plasmin; [1]) [nM] | Ki (Thrombin) [nM] | Ki (Xa) [nM] | Ki (plasma kallikrein; [2]) [nM] | Ki (plasma kallikrein; [3]) [nM] | Ki (plasmin; summary of results, read-out: Ki value of the plasmin inhibition) [nM] | Molecule
< 10 | < 100 | < 1000 | < 10 | – | – | N=C(N)c1ccc(CNC(=O)[C@H](CCc2cc[n+]([O-])cc2)NC(=O)[C@@H](CCCc2ccccc2)NS(=O)(=O)Cc2ccccc2)cc1 [compound 41]
< 100 | < 1000 | > 1000 | < 10 | – | – | N=C(N)c1ccc(CNC(=O)[C@H](CCc2cc[n+]([O-])cc2)NC(=O)[C@@H](CCCc2ccccc2)NS(=O)(=O)Cc2cccc(C(=O)O)c2)cc1 [compound 42]
< 10 | < 100 | < 1000 | < 10 | – | < 5 | N=C(N)c1ccc(CNC(=O)[C@H](CCc2ccncc2)NC(=O)[C@H](NS(=O)(=O)Cc2ccccc2)C2Cc3ccccc3C2)cc1 [compound 46]
< 10 | < 1000 | < 10 | < 10 | – | – | N=C(N)c1ccc(CNC(=O)[C@H](CCCc2ccccc2)NC(=O)[C@@H](CCc2ccncc2)NS(=O)(=O)Cc2ccccc2)cc1 [compound 48]
< 10 | < 10 | < 10 | < 10 | – | – | N=C(N)c1ccc(CNC(=O)[C@H](CCc2ccccc2)NC(=O)[C@@H](CCCc2cccnc2)NS(=O)(=O)Cc2ccccc2)cc1 [compound 51]
< 10 | < 100 | < 10 | < 10 | – | – | N=C(N)c1ccc(CNC(=O)[C@H](CCc2ccccc2)NC(=O)[C@@H](CCCc2cc[n+]([O-])cc2)NS(=O)(=O)Cc2ccccc2)cc1 [compound 53]
< 10 | > 1000 | < 100 | < 10 | – | – | N=C(N)c1ccc(CNC(=O)[C@H](CCc2ccccc2)NC(=O)[C@@H](CCCc2cc[n+]([O-])cc2)NS(=O)(=O)Cc2cccc(C(=O)O)c2)cc1 [compound 54]
< 10 | < 100 | < 10 | < 10 | – | – | N=C(N)c1ccc(CNC(=O)[C@H](CCc2ccccc2)NC(=O)[C@@H](CCCc2ccc[n+]([O-])c2)NS(=O)(=O)Cc2ccccc2)cc1 [compound 55]
< 10 | > 1000 | < 100 | < 10 | – | – | CC(C)(C)OC(=O)NCCCC[C@@H](NS(=O)(=O)Cc1ccccc1)C(=O)N[C@@H](Cc1cccc(CN)c1)C(=O)NCc1ccc(C(=N)N)cc1 [compound 57]
< 100 | > 1000 | < 1000 | < 10 | – | – | CC(C)(C)OC(=O)NCCCC[C@@H](NS(=O)(=O)Cc1ccc(C(=O)O)cc1)C(=O)N[C@@H](Cc1cccc(CN)c1)C(=O)NCc1ccc(C(=N)N)cc1 [compound 58]
< 100 | > 1000 | < 1000 | < 10 | – | – | CC(C)(C)OC(=O)NC[C@@H](NS(=O)(=O)Cc1ccccc1)C(=O)N[C@@H](Cc1cccc(CN)c1)C(=O)NCc1ccc(C(=N)N)cc1 [compound 60]
< 10 | < 1000 | < 1000 | < 10 | – | – | CC(C)(C)OC[C@@H](NS(=O)(=O)Cc1ccccc1)C(=O)N[C@@H](Cc1cccc(CN)c1)C(=O)NCc1ccc(C(=N)N)cc1 [compound 63]
< 10 | > 1000 | > 1000 | < 10 | < 1 | – | COC(=O)c1ccc(CS(=O)(=O)N[C@H](COC(C)(C)C)C(=O)N[C@@H](Cc2cccc(CN)c2)C(=O)NCc2ccc(C(=N)N)cc2)cc1 [compound 64]
< 100 | > 1000 | < 1000 | < 10 | < 1 | – | CC(C)(C)OC[C@@H](NS(=O)(=O)Cc1ccc(C(=O)O)cc1)C(=O)N[C@@H](Cc1cccc(CN)c1)C(=O)NCc1ccc(C(=N)N)cc1 [compound 65]
< 10 | > 1000 | < 100 | < 10 | – | – | CC(C)(C)OC[C@@H](NS(=O)(=O)Cc1cccc(C(=O)O)c1)C(=O)N[C@@H](Cc1cccc(CN)c1)C(=O)NCc1ccc(C(=N)N)cc1 [compound 67]
< 100 | > 1000 | > 1000 | < 10 | – | – | N=C(N)c1ccc(CNC(=O)[C@H](Cc2cccc(CN)c2)NC(=O)[C@@H](CO)NS(=O)(=O)Cc2ccccc2)cc1 [compound 68]
< 100 | > 1000 | > 1000 | < 10 | – | – | N=C(N)c1ccc(CNC(=O)[C@H](Cc2cccc(CN)c2)NC(=O)[C@@H](CO)NS(=O)(=O)Cc2ccc(C(=O)O)cc2)cc1 [compound 70]
< 100 | < 100 | < 1000 | < 100 | – | – | CC(C)(C)OC[C@@H](NS(=O)(=O)Cc1ccccc1)C(=O)N[C@@H](CCc1cccc(CN)c1)C(=O)NCc1ccc(C(=N)N)cc1 [compound 73]
